Experimental findings from patent US8796460B2, “Compounds for inhibiting KSP kinesin activity” (Mercky Sharp & Dohme Corp., priority 2007, dated 2014) are described below.

The first assay relates to HCT116 colon cancer cells. The assay is described as follows: KSP Cellular Assay (percent of cells staining positive for Phos-Histone H3 / Phos-MPM2). As to conditions: Homo sapiens, HCT-116, 16 h, Table 101; HCT116 cells, 16 hours with drug; read-out: ED50 (nM) Range. The class given is cell-based. The procedure, abridged: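 HCT116 cells treated with compound for 16 hours, fixed and stained with Hoechst plus Phos-Histone H3 (ser10) and Phos-MPM2 antibodies. Percent positive cells from immunofluorescence imaging; EC50 by sigmoidal nonlinear regression over 8-point dilutions in duplicate.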
As for `CC(=O)N1N=C(c2cc(F)ccc2F)SC12CCOc1ccc(F)cc12` (stereo not shown) [compound 116], the EC50 is no more than 500 nM.
Still for that read-out and setting: then `CC(=O)N1N=C(c2cc(F)ccc2F)SC12CC(c1ccccc1)Oc1ccccc12` (stereo not shown) [compound 117], with greater than 1000 nM; and `CCOC(=O)N1CCC2(SC(c3cc(F)ccc3F)=NN2C(C)=O)c2ccccc21` (stereo not shown) [compound 113], with greater than 1000 nM.
`CC(=O)N1N=C(c2cc(F)ccc2F)SC12CC1(CCNCC1)Oc1ccccc12` (stereo not shown) [compound 125]: the EC50 is greater than 1000 nM.
In the case of `CC(=O)N1N=C(c2cc(F)ccc2F)SC12CCCOc1ccccc12` (stereo not shown) [compound 121], the EC50 was greater than 1000 nM.
The same measure, in the same setting: in the case of `CC(=O)N1N=C(c2cc(F)ccc2F)S[C@@]12CCc1ccccc12` [compound 118] it was no more than 500 nM; in that of `CC(=O)N1N=C(c2cc(F)ccc2F)SC12COc1ccccc12` (stereo not shown) [compound 106], no more than 500 nM.

The assay is the same for the next values; noted with them: Homo sapiens, HCT-116, 16 h, Table 401; HCT116 cells, 16 hours with drug; read-out: ED50 (nM) Range.
For `O=C(CC1CCNCC1)N1N=C(c2cc(F)ccc2F)SC12CCc1ccccc12` (stereo not shown) [compound 447], the EC50 is no more than 500 nM.
With `NCCCC(=O)N1N=C(c2cc(F)ccc2F)S[C@@]12CCOc1ccccc12` [compound 459], the EC50 is greater than 500 nM.
Consider `O=C(C1CCNC1)N1N=C(c2cc(F)ccc2F)SC12CCCc1ccccc12` (stereo not shown) [compound 412], for which the EC50 was greater than 1000 nM.
In the case of `NCCCCC(=O)N1N=C(c2cc(F)ccc2F)SC12CCOc1ccccc12` (stereo not shown) [compound 487], the EC50 was no more than 500 nM.
On to `O=C(C1CCCNC1)N1N=C(c2cc(F)ccc2F)SC12CCSc1ccccc12` (stereo not shown) [compound 405], for which the EC50 was greater than 1000 nM.
In the case of `CC(C)CC(=O)N1N=C(c2cc(F)ccc2F)SC12CCOc1ccccc12` (stereo not shown) [compound 468], the EC50 is greater than 1000 nM.
Turning to `O=C(C1CCCNC1)N1N=C(c2cc(F)ccc2F)SC12CCCc1ccccc12` (stereo not shown) [compound 416], the EC50 is greater than 1000 nM.
With `O=C(C(F)F)N1N=C(c2cc(F)ccc2F)SC12CCOc1ccccc12` (stereo not shown) [compound 471], the EC50 was no more than 500 nM.
Turning to `O=C(CCCN1CCOCC1)N1N=C(c2cc(F)ccc2F)SC12CCc1ccccc12` (stereo not shown) [compound 457], the EC50 was no more than 500 nM.
The same measure, in the same setting: then `CO[C@@H](C)C(=O)N1N=C(c2cc(F)ccc2F)SC12CCOc1ccccc12` (stereo partly shown) [compound 435], with 500 to 1000 nM; and `O=C(C1CCNCC1)N1N=C(c2cc(F)ccc2F)SC12CCOc1ccccc12` (stereo not shown) [compound 408], with greater than 1000 nM.
For `NCC(=O)N1N=C(c2cc(F)ccc2F)SC12CCOc1ccccc12` (stereo not shown) [compound 469], the EC50 is greater than 1000 nM.
On to `N[C@H]1CC[C@@H](C(=O)N2N=C(c3cc(F)ccc3F)SC23CCOc2ccccc23)CC1` (stereo partly shown) [compound 481], for which the EC50 was greater than 500 nM.
As to `NCCC(=O)N1N=C(c2cc(F)ccc2F)SC12CCc1ccccc12` (stereo not shown) [compound 442], the EC50 is no more than 500 nM.

Still in this assay, the particulars now being: Homo sapiens, HCT-116, 16 h, Table 801; HCT116 cells, 16 hours with drug; read-out: EC50 (nM) Range.
For `CC(=O)N1N=C(c2cc(F)ccc2F)S[C@]12c1cccc(F)c1OC[C@@H]2CCN` [compound 810], the EC50 was greater than 1000 nM.

The same assay, now with this note: Homo sapiens, HCT-116, 16 h, table of Example 1901; HCT116 cells, 16 hours with drug; read-out: EC50 (nM) Range.
Regarding `COCCOCC(=O)N1N=C(c2cc(F)ccc2F)S[C@]12c1ccccc1OC[C@@H]2CCN` [compound 1910], the EC50 is greater than 1000 nM.

Still in this assay, the particulars now being: Homo sapiens, HCT-116, 16 h, table of Example 2201; HCT116 cells, 16 hours with drug; read-out: EC50 (nM) Range.
For `CN(C)C(=O)N1N=C(c2cc(F)ccc2F)S[C@@]12c1cc(F)ccc1OC[C@H]2CCN` (single isomer, unassigned) [compound 2201], the EC50 was greater than 1000 nM.

Staying with this assay, now noted: Homo sapiens, HCT-116, 16 h, table of Example 2501; HCT116 cells, 16 hours with drug; read-out: EC50 (nM) Range.
On to `CC(=O)N1N=C(c2cc(F)ccc2F)S[C@]12c1ccccc1NC[C@@H]2CCO` [compound 2501], for which the EC50 was no more than 500 nM.
Regarding `CC(=O)N1N=C(c2cc(F)ccc2F)S[C@@]12c1ccccc1NC[C@H]2CCO` [compound 2502], the EC50 was no more than 500 nM.

Staying with this assay, now noted: Homo sapiens, HCT-116; table of Example 2001; HCT116 cells, 16 hours with drug; read-out: EC50 (nM) Range.
For the compound `NCC[C@H]1COc2ccccc2[C@]12SC(c1cc(F)ccc1F)=NN2C(=O)CF` [compound 2001], the EC50 was no more than 500 nM.

Still in this assay, the particulars now being: Table 401; HCT116 cells, 16 hours with drug; read-out: ED50 (nM) Range.
Consider `NC1CCC(C(=O)N2N=C(c3cc(F)ccc3F)SC23CCc2ccccc23)CC1` (stereo not shown) [compound 445], for which the EC50 is greater than 1000 nM.
